According to US7816339B2, “Treatments for Flaviviridae virus infection” (priority 2005, dated 2010):
pEC50, pIC50: −log10 of the molar value.

How the values were obtained:
Format in all cases: cell-based
[1] = tested on: replicon RNA (amplicon in NS5B), luciferase replicon cell line; test: Taqman assay of replicon RNA level in replicon cells; settings: Taqman real-time PCR, 2 days incubation; for pIC50: 48 h, GADPH RNA as endogenous control, read-out: IC50: drug dose necessary to reach a 2-fold decrease in replicon RNA level
Experimental: (§1) Cell Culture. Cells of the luciferase replicon cell line (Vrolijk et al., J. Virol. Methods 110:201-209 (2003)) was grown in Dulbecco's minimal essential medium (DMEM) supplemented with 2 mM glutamine, non-essential amino acids (NEAA), 10 mM HEPES, 0.075% sodium bicarbonate, 100 U/ml penicillin and 100 μg/mL streptomycin, and 10% fetal bovine serum. To maintain the selection for replicon, 0.3 mg/mL of G418 were added to the culture media.
Taqman Assay Method. Replicon cells were seeded at 4000 cells/well in 96-well collagen 1-coated Biocoat Plates (Becton Dickinson). Twenty-four hours post-seeding, compounds were added to replicon cells. The final concentration of DMSO was 0.5%, fetal bovine serum was 10%, and no G418 was added. Cells were incubated with compounds for 2 days, at which point the cells were washed with PBS and lysed in 1× cell lysis buffer (Ambion). The replicon RNA level was measured using real time PCR (Taqman assay). The amplicon was located in NS5B. The PCR primers were 5B.2F, ATGGACAGGCGCCCTGA; 5B.2R, […]; the probe sequence was FAM-labeled CACGCCATGCGCTGCGG. GADPH RNA was used as an endogenous control and was amplified in the same reaction as NS5B (multiplex PCR) using primers and VIC-labeled probe recommended by the manufacturer (PE Applied Biosystem). The real-time RT-PCR reactions were run on the ABI PRISM 7900HT Sequence Detection System using the following program: 48° C. for 30 minutes, 95° C. for 10 minutes, 40 cycles of 95° C. for 15 seconds, 60° C. for 1 minute. The ACT values (CT5B-CTGADPH) were plotted against drug concentration and fitted to the sigmoid dose response model using SAS system (SAS Institute, Inc.) or PRISM software (Graphpad Software, Inc.). IC50 was the drug dose response necessary to achieve an increase of 1 in ΔCT over the projected baseline. IC90 was the drug dose response necessary to achieve an increase of 3.2 over the baseline. All Taqman reagents were from PE Applied Biosystem.
(§2) IC50: drug dose necessary to reach a 2-fold decrease in replicon RNA level. IC90: drug dose necessary to reach a 10-fold decrease in replicon RNA level EC50: drug dose necessary to reach a 2-fold decrease in luciferase signal. EC90: drug dose necessary to reach a 10-fold reduction in luciferase signal. CC50: drug dose necessary to reduce the MTS signal to 50% of that of no drug control TI: CC50/EC50 in 5-2 cells. All units are μM.

[2] = tested on: replicon (luciferase signal), luciferase replicon cell line; test: Dose-response luciferase assay in replicon cells; settings: 2 days incubation, 0.5% DMSO, 10% fetal bovine serum; for pEC50: 48 h, read-out: EC50: drug dose necessary to reach a 2-fold decrease in luciferase signal
Experimental: as §1
Dose-Response and Luciferase Assays. Replicon cells were seeded at 5000 cells/well in 96-well collagen 1-coated Biocoat plates (Becton Dickinson; Palo Alto, Calif.). Twenty-four hrs post-seeding, compounds (see Table 1 below) were added to replicon cells. The final concentration of DMSO was 0.5%, fetal bovine serum was 10%, and G418 was not added. The cells were incubated with the compounds for 2 days, at which point the cells were washed with PBS and lysed in 40 μl Glo Lysis Buffer (Promega; Madison, Wis.). 20 μl of lysates were mixed with 100 μl Luciferase Assay Reagent (Promega) and read on a Microtiter Plate Luminometer MLX (DYNEX Technologies; Chantilly, Va.). The fold of reduction in luciferase signal compared to no compound control was plotted against drug concentration and fitted to the sigmoid dose response model using PRISM software (Graphpad Software Inc.; San Diego, Calif.).
as §2

[3] = Cell toxicity assay (MTS) on replicon cells; settings: human; MTS assay on replicon cells; read-out: CC50: drug dose necessary to reduce the MTS signal to 50% of that of no drug control
Experimental: (§3) Cell toxicity assay. The toxicity of compounds on the replicon cells were measured by MTS assay following manufacturer's instructions (Promega). Briefly, 20 μl of CellTiter 96®RAQueous One Solution Reagent were added to each well of the 96-well plate containing 100 μl of culture medium. The plates were incubated for 30-60 minutes before reading OD by DYNEX MRX.
as §2

[4] = tested on: replicon cells; test: Cell toxicity assay (MTS) on replicon cells; settings: for TI: CC50/EC50 in 5-2 cells: ratio CC50/EC50, 5-2 cells; for CC50: MTS assay on replicon cells, read-out: CC50: drug dose necessary to reduce the MTS signal to 50% of that of no drug control
Experimental: as §3, §2

Structure (SMILES)	pIC50 [1]	IC90: drug dose necessary to reach a 10-fold decrease in replicon RNA level [1]	pEC50 [2]	EC90: drug dose necessary to reach a 10-fold reduction in luciferase signal [2] [μM]	CC50 at 2 days [3] [µM]	TI: CC50/EC50 in 5-2 cells [4]	CC50 [4] [µM]
O=c1nc(/N=C/N2CCOCC2)ccn1[C@@H]1O[C@H](CO)C(O)C1O (stereo in doubt) [XII, N^4-[Morpholinomethylene]arabinocytidine]	< 5.00	>10 μM	7.70	1.5	> 10	>500	–
Nc1ccn([C@@H]2O[C@H](CO)[C@@H](O)[C@@H]2O)c(=O)n1 [Cytarabine, reference compound]	~5.00	>10 μM	7.30	4	> 10	>200	–
NC(=O)c1ncn([C@@H]2O[C@H](CO)[C@@H](O)[C@H]2O)n1 [Ribavirin, 1-β-D-ribofuranosyl-1H-1,2,4-triazole-3-carboxamide, reference compound]	4.00 to 4.40	not reached	4.70	80	~500	~25	–
CC(C)N(C=Nc1ccn([C@@H]2O[C@H](CO)[C@@H](O)[C@@H]2O)c(=O)n1)C(C)C [X, N^4-[(Diisopropylamino)methylene]arabinocytidine]	–	>10 μM	–	2	–	>300	> 10
O=c1nc(N=CN2CCCCC2)ccn1[C@@H]1O[C@H](CO)[C@@H](O)[C@@H]1O [XI, N^4-[Piperidinomethylene]arabinocytidine]	–	>10 μM	–	8	–	>100	> 10
O=c1nc(N=CN2CCCC2)ccn1[C@@H]1O[C@H](CO)[C@@H](O)[C@@H]1O [XIII, N^4-[Pyrrolidinomethylene]arabinocytidine]	–	>10 μM	–	5	–	>100	> 10
